# Data from patent US20240109917A1 (ACTELION PHARMACEUTICALS LTD, priority 2020, published 2024).
# pIC50: −log10 of the molar value. Where two headings read alike, the source gives them in different places.
# Tests used:
# PDGFRβ = PDGFRβ (Rattus norvegicus (Rat), UniProt Q05030); experiment: PDGFRβ Cellular Assay (PDGFRb P-Y751 HTRF in A10 cells stimulated with PDGF-BB); assay type: cell-based
# Method in brief: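 Rat A10 cells, plated overnight, were treated with compound for 3 hours, then stimulated with PDGF-BB (working stock 100 ng/mL in 10% FBS medium). After lysis, PDGFRβ P-Y751 was detected by HTRF.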
# VEGFR2, unphosphorylated = VEGFR2, unphosphorylated (Homo sapiens (Human), UniProt P35968); experiment: VEGFR ADP GLO Assay; assay type: biochemical
# VEGFR2, unphosphorylated, sequence (P35968 20-1356): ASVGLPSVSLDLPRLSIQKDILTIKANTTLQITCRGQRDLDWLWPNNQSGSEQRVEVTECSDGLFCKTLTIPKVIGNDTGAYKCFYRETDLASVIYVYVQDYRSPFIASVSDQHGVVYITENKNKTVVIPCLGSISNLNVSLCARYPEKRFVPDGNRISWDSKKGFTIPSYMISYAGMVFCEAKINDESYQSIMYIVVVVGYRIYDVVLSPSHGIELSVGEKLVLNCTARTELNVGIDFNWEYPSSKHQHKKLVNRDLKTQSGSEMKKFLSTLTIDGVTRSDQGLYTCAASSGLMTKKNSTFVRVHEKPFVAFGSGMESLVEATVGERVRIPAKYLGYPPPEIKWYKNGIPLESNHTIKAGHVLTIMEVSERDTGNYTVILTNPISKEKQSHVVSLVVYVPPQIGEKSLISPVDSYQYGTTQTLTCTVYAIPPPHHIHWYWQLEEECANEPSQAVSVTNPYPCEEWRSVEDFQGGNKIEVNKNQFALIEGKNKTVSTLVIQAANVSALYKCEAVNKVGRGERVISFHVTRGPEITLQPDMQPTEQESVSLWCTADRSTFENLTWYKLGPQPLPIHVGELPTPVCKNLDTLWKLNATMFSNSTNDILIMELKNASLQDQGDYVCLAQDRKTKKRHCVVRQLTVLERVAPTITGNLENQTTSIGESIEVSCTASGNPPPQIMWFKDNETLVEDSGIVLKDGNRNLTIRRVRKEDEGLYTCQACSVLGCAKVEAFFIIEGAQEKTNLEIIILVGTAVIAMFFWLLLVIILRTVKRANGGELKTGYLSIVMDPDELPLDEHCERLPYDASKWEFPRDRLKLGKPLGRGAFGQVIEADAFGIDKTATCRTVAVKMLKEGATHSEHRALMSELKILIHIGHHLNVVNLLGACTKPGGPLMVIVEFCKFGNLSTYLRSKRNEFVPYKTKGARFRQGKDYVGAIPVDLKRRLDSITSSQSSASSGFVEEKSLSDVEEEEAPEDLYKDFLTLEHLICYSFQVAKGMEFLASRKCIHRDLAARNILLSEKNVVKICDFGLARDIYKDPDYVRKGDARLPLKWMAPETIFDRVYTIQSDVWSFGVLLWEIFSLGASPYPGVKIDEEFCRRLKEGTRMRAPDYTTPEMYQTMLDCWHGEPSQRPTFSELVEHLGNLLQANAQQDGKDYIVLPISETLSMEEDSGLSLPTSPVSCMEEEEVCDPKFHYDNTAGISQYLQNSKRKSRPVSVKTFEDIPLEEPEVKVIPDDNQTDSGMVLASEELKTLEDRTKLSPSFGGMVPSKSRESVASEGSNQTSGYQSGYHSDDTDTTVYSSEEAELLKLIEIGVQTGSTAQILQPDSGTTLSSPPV
# PDGFRβ, sequence (Q05030 32-1097): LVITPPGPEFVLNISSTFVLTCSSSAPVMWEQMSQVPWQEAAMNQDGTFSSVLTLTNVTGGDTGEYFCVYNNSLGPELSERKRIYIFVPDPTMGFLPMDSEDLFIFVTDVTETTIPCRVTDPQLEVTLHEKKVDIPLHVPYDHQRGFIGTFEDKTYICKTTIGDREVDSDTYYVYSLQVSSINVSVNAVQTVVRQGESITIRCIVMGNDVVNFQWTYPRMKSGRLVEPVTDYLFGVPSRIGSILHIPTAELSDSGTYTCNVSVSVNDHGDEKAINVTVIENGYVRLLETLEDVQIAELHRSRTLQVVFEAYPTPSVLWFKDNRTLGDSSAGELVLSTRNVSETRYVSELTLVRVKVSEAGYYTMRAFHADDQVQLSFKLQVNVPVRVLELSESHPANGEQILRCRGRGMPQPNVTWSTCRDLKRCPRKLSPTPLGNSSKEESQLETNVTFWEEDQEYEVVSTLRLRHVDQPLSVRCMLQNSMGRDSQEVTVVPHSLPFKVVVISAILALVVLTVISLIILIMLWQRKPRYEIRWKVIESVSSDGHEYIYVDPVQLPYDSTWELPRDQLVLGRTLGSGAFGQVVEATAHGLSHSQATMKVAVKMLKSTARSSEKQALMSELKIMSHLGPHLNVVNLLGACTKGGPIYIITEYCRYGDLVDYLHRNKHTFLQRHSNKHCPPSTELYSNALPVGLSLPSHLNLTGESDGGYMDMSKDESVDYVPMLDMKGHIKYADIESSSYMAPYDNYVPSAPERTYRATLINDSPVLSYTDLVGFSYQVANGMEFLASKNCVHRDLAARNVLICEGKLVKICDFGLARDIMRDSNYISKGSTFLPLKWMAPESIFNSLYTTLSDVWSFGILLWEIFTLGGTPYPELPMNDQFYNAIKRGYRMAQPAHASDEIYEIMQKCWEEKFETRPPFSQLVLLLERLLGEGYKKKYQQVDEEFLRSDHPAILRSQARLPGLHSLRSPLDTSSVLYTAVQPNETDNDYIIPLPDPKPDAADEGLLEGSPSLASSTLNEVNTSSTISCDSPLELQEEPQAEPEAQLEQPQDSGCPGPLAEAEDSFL
smiles,measurement,setting,value
"Cc1ncc(NC(=O)CNCC(C)C)cc1NC(=O)c1cnn2cc(-c3cnn4c3OCCC4)sc12 [Example 414, 2-(6,7-dihydro-5H-pyrazolo[5,1-b][1,3]oxazin-3-yl)-N-(5-(2-(isobutylamino)acetamido)-2-methylpyridin-3-yl)pyrazolo[5,1-b]thiazole-7-carboxamide]",pIC50,PDGFRβ; read-out: PDGFR Cellular IC50,8.21
same,pIC50,"VEGFR2, unphosphorylated",5.29
"Cc1ncc(NC(=O)CN2CC(C)(C)C2)cc1NC(=O)c1cnn2cc(-c3cncnc3)sc12 [Example 429, N-(5-(2-(3,3-dimethylazetidin-1-yl)acetamido)-2-methylpyridin-3-yl)-2-(pyrimidin-5-yl)pyrazolo[5,1-b]thiazole-7-carboxamide]",pIC50,PDGFRβ; read-out: PDGFR Cellular IC50,7.51
same,pIC50,"VEGFR2, unphosphorylated",< 5.12
"Cc1ncc(NC(=O)CN2CCC[C@@H]2C)cc1NC(=O)c1cnn2cc(-c3cnn4c3CCC4)sc12 [Example 416, (S)-2-(5,6-dihydro-4H-pyrrolo[1,2-b]pyrazol-3-yl)-N-(2-methyl-5-(2-(2-methylpyrrolidin-1-yl)acetamido)pyridin-3-yl)pyrazolo[5,1-b]thiazole-7-carboxamide]",pIC50,PDGFRβ; read-out: PDGFR Cellular IC50,8.64
same,pIC50,"VEGFR2, unphosphorylated",< 5.12
"Cc1ncc(NC(=O)C[C@H]2CCN(C(C)C)C2)cc1NC(=O)c1cnn2cc(-c3cnn(C)c3)sc12 [Example 465, (R)—N-(5-(2-(1-isopropylpyrrolidin-3-yl)acetamido)-2-methylpyridin-3-yl)-2-(1-methyl-1H-pyrazol-4-yl)pyrazolo[5,1-b]thiazole-7-carboxamide]",pIC50,PDGFRβ; read-out: PDGFR Cellular IC50,5.73
same,pIC50,"VEGFR2, unphosphorylated",< 5.12
"Cc1ncc(C(=O)NCC2CCCN2C)cc1NC(=O)c1cnn2cc(-c3cnn4c3CCC4)sc12 (centres unmarked) [Example 469, 2-(5,6-dihydro-4H-pyrrolo[1,2-b]pyrazol-3-yl)-N-(2-methyl-5-(((1-methylpyrrolidin-2-yl)methyl)carbamoyl)pyridin-3-yl)pyrazolo[5,1-b]thiazole-7-carboxamide]",pIC50,PDGFRβ; read-out: PDGFR Cellular IC50,7.39
same,pIC50,"VEGFR2, unphosphorylated",< 5.12
"CCCNCC(=O)Nc1cnc(C)c(NC(=O)c2cnn3cc(-c4cnn5c4CCC5)sc23)c1 [Example 456, 2-(5,6-dihydro-4H-pyrrolo[1,2-b]pyrazol-3-yl)-N-(2-methyl-5-(2-(propylamino)acetamido)pyridin-3-yl)pyrazolo[5,1-b]thiazole-7-carboxamide]",pIC50,PDGFRβ; read-out: PDGFR Cellular IC50,7.96
same,pIC50,"VEGFR2, unphosphorylated",< 5.12
"Cc1ncc(NC(=O)CN2CCC[C@@H]2C)cc1NC(=O)c1cnn2cc(-c3cnn4c3OCCC4)sc12 [Example 413, (S)-2-(6,7-dihydro-5H-pyrazolo[5,1-b][1,3]oxazin-3-yl)-N-(2-methyl-5-(2-(2-methylpyrrolidin-1-yl)acetamido)pyridin-3-yl)pyrazolo[5,1-b]thiazole-7-carboxamide]",pIC50,PDGFRβ; read-out: PDGFR Cellular IC50,8.47
same,pIC50,"VEGFR2, unphosphorylated",< 5.12
"Cc1ncc(C(=O)NCCN2CCCC2(C)C)cc1NC(=O)c1cnn2cc(-c3cnn4c3CCC4)sc12 [Example 481, 2-(5,6-dihydro-4H-pyrrolo[1,2-b]pyrazol-3-yl)-N-(5-((2-(2,2-dimethylpyrrolidin-1-yl)ethyl)carbamoyl)-2-methylpyridin-3-yl)pyrazolo[5,1-b]thiazole-7-carboxamide]",pIC50,PDGFRβ; read-out: PDGFR Cellular IC50,8.41
same,pIC50,"VEGFR2, unphosphorylated",< 5.12
"Cc1ncc(NC(=O)CN2CCCCCC2)cc1NC(=O)c1cnn2cc(-c3cnn4c3OCCC4)sc12 [Example 420, N-(5-(2-(azepan-1-yl)acetamido)-2-methylpyridin-3-yl)-2-(6,7-dihydro-5H-pyrazolo[5,1-b][1,3]oxazin-3-yl)pyrazolo[5,1-b]thiazole-7-carboxamide]",pIC50,PDGFRβ; read-out: PDGFR Cellular IC50,8.68
same,pIC50,"VEGFR2, unphosphorylated",< 5.12
"Cc1ncc(NC(=O)CN2CCCC2(C)C)cc1NC(=O)c1cnn2cc(-c3cn(C)nc3C)sc12 [Example 444, 2-(1,3-Dimethyl-1H-pyrazol-4-yl)-N-(5-(2-(2,2-dimethylpyrrolidin-1-yl)acetamido)-2-methylpyridin-3-yl)pyrazolo[5,1-b]thiazole-7-carboxamide]",pIC50,PDGFRβ; read-out: PDGFR Cellular IC50,8.89
same,pIC50,"VEGFR2, unphosphorylated",< 5.12
"Cc1ncc(C(=O)NCCN2CC3CCC2CC3)cc1NC(=O)c1cnn2cc(-c3cnn4c3OCCC4)sc12 [Example 477, N-(5-((2-(2-azabicyclo[2.2.2]octan-2-yl)ethyl)carbamoyl)-2-methylpyridin-3-yl)-2-(6,7-dihydro-5H-pyrazolo[5,1-b][1,3]oxazin-3-yl)pyrazolo[5,1-b]thiazole-7-carboxamide]",pIC50,PDGFRβ; read-out: PDGFR Cellular IC50,7.34
same,pIC50,"VEGFR2, unphosphorylated",< 5.12
"Cc1ncc(NC(=O)CN2CC(C)(C)C2)cc1NC(=O)c1cnn2cc(-c3cnn(C)c3C)sc12 [Example 434, 2-(1,5-Dimethyl-1H-pyrazol-4-yl)-N-(5-(2-(3,3-dimethylazetidin-1-yl)acetamido)-2-methylpyridin-3-yl)pyrazolo[5,1-b]thiazole-7-carboxamide]",pIC50,PDGFRβ; read-out: PDGFR Cellular IC50,8.62
same,pIC50,"VEGFR2, unphosphorylated",5.28
"Cc1ncc(NC(=O)CN2CC3(CCCCO3)C2)cc1NC(=O)c1cnn2cc(-c3cnn4c3CCC4)sc12 [Example 424, N-(5-(2-(5-oxa-2-azaspiro[3.5]nonan-2-yl)acetamido)-2-methylpyridin-3-yl)-2-(5,6-dihydro-4H-pyrrolo[1,2-b]pyrazol-3-yl)pyrazolo[5,1-b]thiazole-7-carboxamide]",pIC50,PDGFRβ; read-out: PDGFR Cellular IC50,8.17
same,pIC50,"VEGFR2, unphosphorylated",< 5.12
"Cc1ncc(C(=O)NCCN2CC(C)(C)C2)cc1NC(=O)c1cnn2cc(-c3cnn4c3OCCC4)sc12 [Example 479, 2-(6,7-dihydro-5H-pyrazolo[5,1-b][1,3]oxazin-3-yl)-N-(5-((2-(3,3-dimethylazetidin-1-yl)ethyl)carbamoyl)-2-methylpyridin-3-yl)pyrazolo[5,1-b]thiazole-7-carboxamide]",pIC50,PDGFRβ; read-out: PDGFR Cellular IC50,7.01
same,pIC50,"VEGFR2, unphosphorylated",< 5.12
"Cc1ncc(NC(=O)CN2CCCC23CCC3)cc1NC(=O)c1cnn2cc(-c3cnc4n3CCOC4)sc12 [Example 418, N-(5-(2-(5-azaspiro[3.4]octan-5-yl)acetamido)-2-methylpyridin-3-yl)-2-(5,6-dihydro-8H-imidazo[2,1-c][1,4]oxazin-3-yl)pyrazolo[5,1-b]thiazole-7-carboxamide]",pIC50,PDGFRβ; read-out: PDGFR Cellular IC50,8.19
same,pIC50,"VEGFR2, unphosphorylated",< 5.12
"Cc1ncc(NC(=O)CN2CCCC23CCC3)cc1NC(=O)c1cnn2cc(-c3cnn4c3COCC4)sc12 [Example 417, N-(5-(2-(5-azaspiro[3.4]octan-5-yl)acetamido)-2-methylpyridin-3-yl)-2-(6,7-dihydro-4H-pyrazolo[5,1-c][1,4]oxazin-3-yl)pyrazolo[5,1-b]thiazole-7-carboxamide]",pIC50,PDGFRβ; PDGFR Cellular IC50,8.59
same,pIC50,"VEGFR2, unphosphorylated",< 5.12
"Cc1ncc(C(=O)NCCN2CC3CCC2CC3)cc1NC(=O)c1cnn2cc(-c3cnn4c3COCC4)sc12 [Example 459, N-(5-((2-(2-azabicyclo[2.2.2]octan-2-yl)ethyl)carbamoyl)-2-methylpyridin-3-yl)-2-(6,7-dihydro-4H-pyrazolo[5,1-c][1,4]oxazin-3-yl)pyrazolo[5,1-b]thiazole-7-carboxamide]",pIC50,PDGFRβ; read-out: PDGFR Cellular IC50,7.47
same,pIC50,"VEGFR2, unphosphorylated",< 5.12
"Cc1ncc(NC(=O)CN2CC(C)(C)C2)cc1NC(=O)c1cnn2cc(-c3cnn4c3COCC4)sc12 [Example 476, 2-(6,7-dihydro-4H-pyrazolo[5,1-c][1,4]oxazin-3-yl)-N-(5-(2-(3,3-dimethylazetidin-1-yl)acetamido)-2-methylpyridin-3-yl)pyrazolo[5,1-b]thiazole-7-carboxamide]",pIC50,PDGFRβ; read-out: PDGFR Cellular IC50,8.31
same,pIC50,"VEGFR2, unphosphorylated",< 5.12
"Cc1ncc(NC(=O)C[C@@H]2CCN(C(C)C)C2)cc1NC(=O)c1cnn2cc(-c3cnn(C)c3)sc12 [Example 464, (S)—N-(5-(2-(1-isopropylpyrrolidin-3-yl)acetamido)-2-methylpyridin-3-yl)-2-(1-methyl-1H-pyrazol-4-yl)pyrazolo[5,1-b]thiazole-7-carboxamide]",pIC50,PDGFRβ; read-out: PDGFR Cellular IC50,5.70
same,pIC50,"VEGFR2, unphosphorylated",< 5.12
"Cc1ncc(C(=O)NCCN2CCCC2(C)C)cc1NC(=O)c1cnn2cc(-c3cnn4c3COCC4)sc12 [Example 450, 2-(6,7-dihydro-4H-pyrazolo[5,1-c][1,4]oxazin-3-yl)-N-(5-((2-(2,2-dimethylpyrrolidin-1-yl)ethyl)carbamoyl)-2-methylpyridin-3-yl)pyrazolo[5,1-b]thiazole-7-carboxamide]",pIC50,PDGFRβ; read-out: PDGFR Cellular IC50,7.67
same,pIC50,"VEGFR2, unphosphorylated",< 5.12
"Cc1ncc(NC(=O)CN2CC(C)(C)C2)cc1NC(=O)c1cnn2cc(-c3cnn(C(F)F)c3)sc12 [Example 428, 2-(1-(difluoromethyl)-1H-pyrazol-4-yl)-N-(5-(2-(3,3-dimethylazetidin-1-yl)acetamido)-2-methylpyridin-3-yl)pyrazolo[5,1-b]thiazole-7-carboxamide]",pIC50,PDGFRβ; read-out: PDGFR Cellular IC50,8.10
same,pIC50,"VEGFR2, unphosphorylated",< 5.12
"Cc1ncc(C(=O)NCCN2CC(C)(C)C2)cc1NC(=O)c1cnn2cc(-c3cnn4c3CCC4)sc12 [Example 482, 2-(5,6-dihydro-4H-pyrrolo[1,2-b]pyrazol-3-yl)-N-(5-((2-(3,3-dimethylazetidin-1-yl)ethyl)carbamoyl)-2-methylpyridin-3-yl)pyrazolo[5,1-b]thiazole-7-carboxamide]",pIC50,PDGFRβ; read-out: PDGFR Cellular IC50,7.54
same,pIC50,"VEGFR2, unphosphorylated",< 5.12
"Cc1ncc(NC(=O)CN2CC3(COC3)C2)cc1NC(=O)c1cnn2cc(-c3cnn4c3OCCC4)sc12 [Example 411, N-(5-(2-(2-oxa-6-azaspiro[3.3]heptan-6-yl)acetamido)-2-methylpyridin-3-yl)-2-(6,7-dihydro-5H-pyrazolo[5,1-b][1,3]oxazin-3-yl)pyrazolo[5,1-b]thiazole-7-carboxamide]",pIC50,PDGFRβ; read-out: PDGFR Cellular IC50,6.94
same,pIC50,"VEGFR2, unphosphorylated",< 5.12
"Cc1ncc(NC(=O)CN2CC(C)(C)C2)cc1NC(=O)c1cnn2cc(-c3cn(C)nc3C)sc12 [Example 430, 2-(1,3-Dimethyl-1H-pyrazol-4-yl)-N-(5-(2-(3,3-dimethylazetidin-1-yl)acetamido)-2-methylpyridin-3-yl)pyrazolo[5,1-b]thiazole-7-carboxamide]",pIC50,PDGFRβ; read-out: PDGFR Cellular IC50,9.00
same,pIC50,"VEGFR2, unphosphorylated",5.29
"Cc1ncc(NC(=O)CNCC2CC2)cc1NC(=O)c1cnn2cc(-c3cnn4c3OCCC4)sc12 [Example 453, N-(5-(2-((cyclopropylmethyl)amino)acetamido)-2-methylpyridin-3-yl)-2-(6,7-dihydro-5H-pyrazolo[5,1-b][1,3]oxazin-3-yl)pyrazolo[5,1-b]thiazole-7-carboxamide]",pIC50,PDGFRβ; read-out: PDGFR Cellular IC50,7.60
same,pIC50,"VEGFR2, unphosphorylated",< 5.12
